# Results taken from patent US9163256B2, “Mutant receptors and their use in a nuclear receptor-based inducible gene expression system” (priority 2004, dated 2015).
# Columns and labels:
# Assay in all cases: GAL4-driven luciferase reporter assay in NIH3T3 cells
# Type in all cases: cell-based
# CfEcR-DEF mutant L234R = CfEcR-DEF mutant L234R (Choristoneura fumiferana, UniProt O77255, L517R); conditions: for Emax: NIH3T3, 40 h, read-out: Rel Max FI
# Procedure: (§1) This construct was prepared in the same way as in switch 1.1 above except wild-type CfEcR-DEF was replaced with mutant CfEcR-DEF comprising a ligand binding domain comprising a substitution mutation selected from Table 1 below.
# (§2) DNAs were transfected into mouse NIH3T3 cells (ATCC) as follows. Standard methods for culture and maintenance of the cells were followed. Cells were harvested and plated 96-well plates at 2,500 cells per well, in 50 μL of growth medium containing 10% fetal bovine serum (FBS). Twenty-four hours later, the cells were treated with 35 μL of serum-free growth medium containing either dimethylsulfoxide (DMSO; control) or a DMSO solution of ligand. The cells were then transfected using Superfect (Qiagen Inc.) transfection reagent. For each well, 0.625 μL of Superfect was mixed with 14.2 μL of serum-free growth medium. 0.16 μg of reporter construct and 0.04 μg of each receptor construct were added to the transfection reagent mix. The contents of the transfection mix were mixed in a vortex mixer and let stand at room temperature for 30 minutes. At the end of incubation, 15 μL of transfection mix was added to the cells. The cells were maintained at 37° C. and 5% CO2 for 48 hours in 5% FBS.
# (§3) Reporter Assays: Cells were harvested 40 hours after adding ligands. 125 μL of passive lysis buffer (part of Dual-Luciferase reporter assay system from Promega Corporation) were added to each well of the […] plate. The plates were placed on a rotary shaker for 15 minutes. Twenty μL of lysate were assayed. Luciferase activity was measured using Dual-Luciferase reporter assay system from Promega Corporation following the manufacturer's instructions. Fold induction (FI) activities were calculated by dividing relative light units (“RLU”) in ligand treated cells with RLU in DMSO treated cells (untreated control).
# CfEcR-DEF mutant W238L = CfEcR-DEF mutant W238L (Choristoneura fumiferana, UniProt O77255, W521L); conditions: for Emax: NIH3T3, 40 h, read-out: Rel Max FI
# CfEcR-DEF mutant W238L, sequence (P28702 299-449): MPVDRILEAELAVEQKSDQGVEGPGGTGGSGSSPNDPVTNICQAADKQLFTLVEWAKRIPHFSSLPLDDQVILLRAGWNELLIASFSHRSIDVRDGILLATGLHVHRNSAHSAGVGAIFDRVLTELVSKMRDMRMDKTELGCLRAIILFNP
# CfEcR-DEF mutant W238L, sequence (O77255 entry or part of it W521L): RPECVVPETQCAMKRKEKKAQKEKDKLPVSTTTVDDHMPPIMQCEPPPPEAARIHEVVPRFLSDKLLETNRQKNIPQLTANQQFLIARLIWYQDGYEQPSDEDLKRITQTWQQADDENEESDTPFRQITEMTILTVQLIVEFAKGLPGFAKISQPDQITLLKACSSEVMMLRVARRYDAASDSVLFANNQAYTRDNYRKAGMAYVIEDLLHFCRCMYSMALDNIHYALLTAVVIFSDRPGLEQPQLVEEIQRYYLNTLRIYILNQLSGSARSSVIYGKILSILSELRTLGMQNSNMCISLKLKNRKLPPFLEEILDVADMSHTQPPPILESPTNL
# Procedure: as §1, §2, §3
# CfEcR-DEF mutant M125G = CfEcR-DEF mutant M125G (Choristoneura fumiferana, UniProt O77255, M408G)
# Procedure: as §1, §2, §3
# CfEcR-DEF mutant M125I = CfEcR-DEF mutant M125I (Choristoneura fumiferana, UniProt O77255, M408I); conditions: for Emax: NIH3T3, 40 h, read-out: Rel Max FI
# CfEcR-DEF mutant M125I, sequence (O77255 entry or part of it M408I): as the sequence (O77255 entry or part of it W521L) above, with M202I, L315W counted along it
# CfEcR-DEF mutant M125I, sequence (P28702 299-449, further chain): as the sequence (P28702 299-449) above
# Procedure: as §1, §2, §3
# CfEcR-DEF mutant I51M = CfEcR-DEF mutant I51M (Choristoneura fumiferana, UniProt O77255, I334M); conditions: for Emax: NIH3T3, 40 h, read-out: Rel Max FI
# Procedure: as §1, §2, §3
# CfEcR-DEF mutant L234W = CfEcR-DEF mutant L234W (Choristoneura fumiferana, UniProt O77255, L517W); conditions: for Emax: NIH3T3, 40 h, read-out: Rel Max FI
# CfEcR-DEF mutant L234W, sequence (O77255 entry or part of it L517W): as the sequence (O77255 entry or part of it W521L) above, with L311W, L315W counted along it
# CfEcR-DEF mutant L234W, sequence (P28702 299-449, further chain): as the sequence (P28702 299-449) above
# Procedure: as §1, §2, §3
# CfEcR-DEF mutant T52R = CfEcR-DEF mutant T52R (Choristoneura fumiferana, UniProt O77255, T335R); conditions: for Emax: NIH3T3, 40 h, read-out: Rel Max FI
# CfEcR-DEF mutant T52R, sequence (O77255 entry or part of it T335R): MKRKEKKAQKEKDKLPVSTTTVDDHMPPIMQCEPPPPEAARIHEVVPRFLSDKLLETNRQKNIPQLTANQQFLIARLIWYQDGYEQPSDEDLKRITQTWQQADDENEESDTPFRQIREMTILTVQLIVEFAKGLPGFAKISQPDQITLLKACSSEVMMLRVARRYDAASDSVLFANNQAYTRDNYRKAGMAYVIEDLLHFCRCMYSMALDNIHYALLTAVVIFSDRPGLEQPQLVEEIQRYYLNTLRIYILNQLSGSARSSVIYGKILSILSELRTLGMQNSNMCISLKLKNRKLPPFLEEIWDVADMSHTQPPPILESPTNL
# CfEcR-DEF mutant T52R, sequence (P28702 299-449, further chain): as the sequence (P28702 299-449) above
# Procedure: as §1, §2, §3
# CfEcR-DEF mutant L223Y = CfEcR-DEF mutant L223Y (Choristoneura fumiferana, UniProt O77255, L506Y); conditions: for Emax: NIH3T3, 40 h, read-out: Rel Max FI
# Procedure: as §1, §2, §3
# CfEcR-DEF mutant L223K = CfEcR-DEF mutant L223K (Choristoneura fumiferana, UniProt O77255, L506K); conditions: for Emax: NIH3T3, 40 h, read-out: Rel Max FI
# Procedure: as §1, §2, §3
# CfEcR-DEF mutant L132E = CfEcR-DEF mutant L132E (Choristoneura fumiferana, UniProt O77255, L415E); conditions: for Emax: NIH3T3, 40 h, read-out: Rel Max FI
# Procedure: as §1, §2, §3
# CfEcR-DEF mutant T52G = CfEcR-DEF mutant T52G (Choristoneura fumiferana, UniProt O77255, T335G); conditions: for Emax: NIH3T3, 40 h, read-out: Rel Max FI
# CfEcR-DEF mutant T52G, sequence (O77255 entry or part of it T335G): as the sequence (O77255 entry or part of it W521L) above, with T129G, L315W counted along it
# CfEcR-DEF mutant T52G, sequence (P28702 298-449, further chain): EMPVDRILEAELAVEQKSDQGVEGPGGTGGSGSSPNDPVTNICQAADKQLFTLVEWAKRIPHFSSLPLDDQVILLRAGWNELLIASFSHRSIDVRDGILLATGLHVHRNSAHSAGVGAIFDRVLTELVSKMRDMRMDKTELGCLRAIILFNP
# Procedure: as §1, §2, §3
# CfEcR-DEF mutant T52M = CfEcR-DEF mutant T52M (Choristoneura fumiferana, UniProt O77255, T335M); conditions: for Emax: NIH3T3, 40 h, read-out: Rel MaxFI
# Procedure: as §1, §2, §3
# CfEcR-DEF mutant L223R = CfEcR-DEF mutant L223R (Choristoneura fumiferana, UniProt O77255, L506R); conditions: for Emax: NIH3T3, 40 h, read-out: Rel Max FI
# CfEcR-DEF mutant L223R, sequence (O77255 entry or part of it L506R): as the sequence (O77255 entry or part of it T335R) above, with R117T, L288R counted along it
# CfEcR-DEF mutant L223R, sequence (P28702 299-449, further chain): as the sequence (P28702 299-449) above
# Procedure: as §1, §2, §3
# CfEcR-DEF mutant M219K = CfEcR-DEF mutant M219K (Choristoneura fumiferana, UniProt O77255, M502K); conditions: for Emax: NIH3T3, 40 h, read-out: Rel Max FI
# Procedure: as §1, §2, §3
# CfEcR-DEF mutant T52Q = CfEcR-DEF mutant T52Q (Choristoneura fumiferana, UniProt O77255, T335Q); conditions: for Emax: NIH3T3, 40 h, read-out: Rel Max FI
# Procedure: as §1, §2, §3
# CfEcR-DEF mutant F48R = CfEcR-DEF mutant F48R (Choristoneura fumiferana, UniProt O77255, F331R); conditions: for Emax: NIH3T3, 40 h, read-out: Rel Max FI
# Procedure: as §1, §2, §3
# CfEcR-DEF mutant F48K = CfEcR-DEF mutant F48K (Choristoneura fumiferana, UniProt O77255, F331K); conditions: for Emax: NIH3T3, 40 h, read-out: Rel Max FI
# CfEcR-DEF mutant F48K, sequence (O77255 entry or part of it F331K): as the sequence (O77255 entry or part of it T335R) above, with F113K, R117T counted along it
# CfEcR-DEF mutant F48K, sequence (P28702 299-449, further chain): as the sequence (P28702 299-449) above
# Procedure: as §1, §2, §3
# CfEcR-DEF mutant M125V = CfEcR-DEF mutant M125V (Choristoneura fumiferana, UniProt O77255, M408V); conditions: for Emax: NIH3T3, 40 h, read-out: Rel Max FI
# Procedure: as §1, §2, §3
# CfEcR-DEF mutant M125N = CfEcR-DEF mutant M125N (Choristoneura fumiferana, UniProt O77255, M408N)
# Procedure: as §1, §2, §3
# CfEcR-DEF mutant M219Y = CfEcR-DEF mutant M219Y (Choristoneura fumiferana, UniProt O77255, M502Y); conditions: for Emax: NIH3T3, 40 h, read-out: Rel Max FI
# Procedure: as §1, §2, §3
# CfEcR-DEF mutant T52W = CfEcR-DEF mutant T52W (Choristoneura fumiferana, UniProt O77255, T335W)
# CfEcR-DEF mutant T52W, sequence (O77255 entry or part of it T335W): as the sequence (O77255 entry or part of it T335R) above, with R117W counted along it
# CfEcR-DEF mutant T52W, sequence (P28702 299-449, further chain): as the sequence (P28702 299-449) above
# Procedure: as §1, §2, §3
# CfEcR-DEF mutant M219W = CfEcR-DEF mutant M219W (Choristoneura fumiferana, UniProt O77255, M502W); conditions: for Emax: NIH3T3, 40 h, read-out: Rel Max FI
# Procedure: as §1, §2, §3
# CfEcR-DEF mutant W238M = CfEcR-DEF mutant W238M (Choristoneura fumiferana, UniProt O77255, W521M); conditions: for Emax: NIH3T3, 40 h, read-out: Rel MaxFI
# Procedure: as §1, §2, §3
# CfEcR-DEF mutant M125S = CfEcR-DEF mutant M125S (Choristoneura fumiferana, UniProt O77255, M408S)
# Procedure: as §1, §2, §3
# CfEcR-DEF mutant M219A = CfEcR-DEF mutant M219A (Choristoneura fumiferana, UniProt O77255, M502A); conditions: for Emax: NIH3T3, 40 h, read-out: Rel Max FI
# CfEcR-DEF mutant M219A, sequence (O77255 entry or part of it M502A): as the sequence (O77255 entry or part of it W521L) above, with M296A, L315W counted along it
# CfEcR-DEF mutant M219A, sequence (P28702 299-449, further chain): as the sequence (P28702 299-449) above
# Procedure: as §1, §2, §3
structure (smiles),measurement,setting,value
"CCCCC(N(NC(=O)c1ccc(CC)cc1)C(=O)c1cc(C)cc(C)c1)C(C)(C)C (centres unmarked) [RG-115840, 3,5-dimethyl-benzoic acid N-(1-tert-butyl-pentyl)-N′-(4-ethyl-benzoyl)-hydrazide]",EC50,CfEcR-DEF mutant L234R,20 µM
same,Emax,CfEcR-DEF mutant L234R,224%
same,EC50,CfEcR-DEF mutant W238L,2 µM
same,Emax,CfEcR-DEF mutant W238L,41%
same,EC50,CfEcR-DEF mutant M125G,2.97 µM
same,EC50,CfEcR-DEF mutant M125I,3.02 µM
same,Emax,CfEcR-DEF mutant M125I,45%
same,EC50,CfEcR-DEF mutant I51M,4.13 µM
same,Emax,CfEcR-DEF mutant I51M,27%
same,EC50,CfEcR-DEF mutant L234W,> 33 µM
same,Emax,CfEcR-DEF mutant L234W,6%
same,EC50,CfEcR-DEF mutant T52R,> 33 µM
same,Emax,CfEcR-DEF mutant T52R,2%
same,EC50,CfEcR-DEF mutant L223Y,0.58 µM
same,Emax,CfEcR-DEF mutant L223Y,142%
same,EC50,CfEcR-DEF mutant L223K,1 µM
same,Emax,CfEcR-DEF mutant L223K,93%
same,EC50,CfEcR-DEF mutant L132E,1.67 µM
same,Emax,CfEcR-DEF mutant L132E,156%
same,EC50,CfEcR-DEF mutant T52G,3.61 µM
same,Emax,CfEcR-DEF mutant T52G,23%
same,EC50,CfEcR-DEF mutant T52M,5 µM
same,Emax,CfEcR-DEF mutant T52M,15%
same,EC50,CfEcR-DEF mutant L223R,2 µM
same,Emax,CfEcR-DEF mutant L223R,25%
same,EC50,CfEcR-DEF mutant M219K,> 33 µM
same,Emax,CfEcR-DEF mutant M219K,1%
same,EC50,CfEcR-DEF mutant T52Q,2 µM
same,Emax,CfEcR-DEF mutant T52Q,34%
same,EC50,CfEcR-DEF mutant F48R,3.58 µM
same,Emax,CfEcR-DEF mutant F48R,265%
same,EC50,CfEcR-DEF mutant F48K,3.76 µM
same,Emax,CfEcR-DEF mutant F48K,18%
same,EC50,CfEcR-DEF mutant M125V,3.79 µM
same,Emax,CfEcR-DEF mutant M125V,47%
same,EC50,CfEcR-DEF mutant M125N,3.3 µM
same,EC50,CfEcR-DEF mutant M219Y,1 µM
same,Emax,CfEcR-DEF mutant M219Y,68%
same,EC50,CfEcR-DEF mutant T52W,4.07 µM
same,EC50,CfEcR-DEF mutant M219W,2.33 µM
same,Emax,CfEcR-DEF mutant M219W,39%
same,EC50,CfEcR-DEF mutant W238M,2 µM
same,Emax,CfEcR-DEF mutant W238M,41%
same,EC50,CfEcR-DEF mutant M125S,1.4 µM
same,EC50,CfEcR-DEF mutant M219A,2.87 µM
same,Emax,CfEcR-DEF mutant M219A,60%
"CCc1c(C(=O)NN(C(=O)c2cc(OC)c(C)c(OC)c2)C(C=C(C)C(C)(C)C)C(C)(C)C)ccc2c1OCCO2 (centres unmarked) [RG-115898, 3,5-dimethoxy-4-methyl-benzoic acid N-(1-tert-butyl-3,4,4-trimethyl-pent-2-enyl)-N′-(5-ethyl-2,3-dihydro-benzo[1,4]dioxine-6-carbonyl)-hydrazide]",EC50,CfEcR-DEF mutant L234R,> 33 µM
same,Emax,CfEcR-DEF mutant L234R,58%
same,EC50,CfEcR-DEF mutant W238L,> 33 µM
same,Emax,CfEcR-DEF mutant W238L,0%
same,EC50,CfEcR-DEF mutant M125G,0.08 µM
same,EC50,CfEcR-DEF mutant M125I,> 33 µM
same,Emax,CfEcR-DEF mutant M125I,0%
same,EC50,CfEcR-DEF mutant I51M,> 33 µM
same,Emax,CfEcR-DEF mutant I51M,2%
same,EC50,CfEcR-DEF mutant L234W,> 33 µM
same,Emax,CfEcR-DEF mutant L234W,2%
same,EC50,CfEcR-DEF mutant T52R,> 33 µM
same,Emax,CfEcR-DEF mutant T52R,0%
same,EC50,CfEcR-DEF mutant L223Y,0.33 µM
same,Emax,CfEcR-DEF mutant L223Y,20%
same,Emax,CfEcR-DEF mutant L223K,18%
same,EC50,CfEcR-DEF mutant L132E,2.15 µM
same,Emax,CfEcR-DEF mutant L132E,34%
same,EC50,CfEcR-DEF mutant T52G,> 33 µM
same,Emax,CfEcR-DEF mutant T52G,1%
same,EC50,CfEcR-DEF mutant T52M,> 33 µM
same,Emax,CfEcR-DEF mutant T52M,1%
same,EC50,CfEcR-DEF mutant L223R,> 33 µM
same,Emax,CfEcR-DEF mutant L223R,1%
same,EC50,CfEcR-DEF mutant M219K,> 33 µM
same,Emax,CfEcR-DEF mutant M219K,0%
same,EC50,CfEcR-DEF mutant T52Q,20 µM
same,Emax,CfEcR-DEF mutant T52Q,8%
same,EC50,CfEcR-DEF mutant F48R,> 33 µM
same,Emax,CfEcR-DEF mutant F48R,0%
same,EC50,CfEcR-DEF mutant F48K,> 33 µM
same,Emax,CfEcR-DEF mutant F48K,8%
same,EC50,CfEcR-DEF mutant M125V,> 33 µM
same,Emax,CfEcR-DEF mutant M125V,1%
same,EC50,CfEcR-DEF mutant M125N,0.94 µM
same,EC50,CfEcR-DEF mutant M219Y,> 33 µM
same,Emax,CfEcR-DEF mutant M219Y,1%
same,EC50,CfEcR-DEF mutant T52W,0.18 µM
same,Emax,"CfEcR-DEF mutant T52W; NIH3T3, 40 h, read-out: Rel Max FI",424%
same,EC50,CfEcR-DEF mutant M219W,> 33 µM
same,Emax,CfEcR-DEF mutant M219W,0%
same,EC50,CfEcR-DEF mutant W238M,> 33 µM
same,Emax,CfEcR-DEF mutant W238M,3%
same,EC50,CfEcR-DEF mutant M125S,0.33 µM
same,EC50,CfEcR-DEF mutant M219A,1 µM
same,Emax,CfEcR-DEF mutant M219A,5%
